Reference: US20130274338A1, “PHARMACEUTICAL COMPOSITIONS COMPRISING DGLA, 15-OHEPA, AND/OR 15-HETRE AND METHODS OF REDUCING SEBUM PRODUCTION USING SAME” (priority 2012, published 2013)

Tested on: P. acnes
Experiment: Agar dilution method, growth of P. acnes and MIC, combinations with a fatty acid spike
Type: cell-based, Propionibacterium acnes
Set-up: key to Growth Index Plate 1 / Growth Index Plate 2 / Growth Index Plate 3 / Growth Index Avg: +++: confluent growth (comparable to control); ++: less confluent growth; +: marked reduction in growth to multiple tiny, single colonies; −: no growth present
Method: Several compounds including fatty acids such as DGLA, 15-OHEPA, and 15-HETrE were tested to determine their capacity to inhibit the growth of P. acnes. In an exemplary method, an agar dilution method was used to determine the minimum inhibitory concentration (MIC) of each tested compound. Briefly, the agar dilution method involved preparing a series of concentrations of each compound (e.g., nicotinamide, benzoyl peroxide, adapalene, metronidazole, DGLA, 15-OHEPA, and 15-HETrE) in a Reinforced Clostridial Agar (RCA) media that facilitates growth of P. acnes under anaerobic conditions. An inoculum of P. acnes was prepared by incubation of P. acnes for approximately seven days at 35-37° C. to achieve a ≧1.0 OD600 inoculum of P. acnes in RCM broth. A portion of this inoculum was then added to the surface of each plate as a 10 μL spot and incubated at 35-37° C. for 72 hours or more. Growth of P. acnes was then observed and compared to control plates in which no compound has been added, and positive inhibition plates prepared with erythromycin. […] The growth of P. acnes in the presence of nicotinamide, benzoyl peroxide, adapalene, metronidazole, DGLA, 15-OHEPA, and 15-HETrE was determined with varying concentrations of the compound (see, Table 2). Next, the MIC was determined as the concentration at which a marked reduction (+) occurs in the appearance of growth on the test plate (as per Clinical and Laboratory Standards Institute M11-A7).
The compounds tested singly in Example 1 were tested in combination with one another to determine the capacity of the combination to inhibit the growth of P. acnes. In an exemplary method, the MIC was determined for each of the combination as described in Example 1. Briefly, test combinations included DGLA with nicotinamide, benzoyl peroxide, adapalene, or metronidazole; 15-HETrE with nicotinamide, benzoyl peroxide, adapalene, or metronidazole; and 15-OHEPA with nicotinamide, benzoyl peroxide, adapalene, or metronidazole. The tables below show the growth of P. acnes in the presence of 0.4 or 1.0 mg/mL DGLA with varying concentrations of nicotinamide, benzoyl peroxide, adapalene, or metronidazole (Table 3); the growth of P. acnes in the presence of 0.01 or 0.05 mg/mL 15-HETrE with varying concentrations of nicotinamide, benzoyl peroxide, adapalene, or metronidazole (Table 5); and the growth of P. acnes in the presence of 0.5 or 0.1 mg/mL 15-OHEPA with varying concentrations of nicotinamide, benzoyl peroxide, adapalene, or metronidazole (Table 7).

[1] = compound at 0.2 mg/mL + 0.01 mg/mL 15-HETrE
[2] = compound at 0.2 mg/mL + 0.05 mg/mL 15-HETrE
[3] = compound at 0.2 mg/mL + 0.05 mg/mL 15-OHEPA
[4] = compound at 0.2 mg/mL + 0.1 mg/mL 15-OHEPA
[5] = compound at 0.2 mg/mL + 0.4 mg/mL dGLA
[6] = compound at 0.2 mg/mL + 1.0 mg/mL dGLA
[7] = compound at 0.4 mg/mL + 0.01 mg/mL 15-HETrE
[8] = compound at 0.4 mg/mL + 0.05 mg/mL 15-HETrE
[9] = compound at 0.4 mg/mL + 0.05 mg/mL 15-OHEPA
[10] = compound at 0.4 mg/mL + 0.1 mg/mL 15-OHEPA
[11] = compound at 0.4 mg/mL + 0.4 mg/mL dGLA
[12] = compound at 0.4 mg/mL + 1.0 mg/mL dGLA
[13] = compound at 0.6 mg/mL + 0.01 mg/mL 15-HETrE
[14] = compound at 0.6 mg/mL + 0.05 mg/mL 15-HETrE
[15] = compound at 0.6 mg/mL + 0.05 mg/mL 15-OHEPA
[16] = compound at 0.6 mg/mL + 0.1 mg/mL 15-OHEPA
[17] = compound at 0.6 mg/mL + 0.4 mg/mL dGLA
[18] = compound at 0.6 mg/mL + 1.0 mg/mL dGLA
[19] = compound at 0.8 mg/mL + 0.01 mg/mL 15-HETrE
[20] = compound at 0.8 mg/mL + 0.05 mg/mL 15-HETrE
[21] = compound at 0.8 mg/mL + 0.05 mg/mL 15-OHEPA
[22] = compound at 0.8 mg/mL + 0.1 mg/mL 15-OHEPA
[23] = compound at 0.8 mg/mL + 0.4 mg/mL dGLA
[24] = compound at 0.8 mg/mL + 1.0 mg/mL dGLA
[25] = compound at 1.0 mg/mL + 0.01 mg/mL 15-HETrE
[26] = compound at 1.0 mg/mL + 0.05 mg/mL 15-HETrE
[27] = compound at 1.0 mg/mL + 0.05 mg/mL 15-OHEPA
[28] = compound at 1.0 mg/mL + 0.1 mg/mL 15-OHEPA
[29] = compound at 1.0 mg/mL + 0.4 mg/mL dGLA
[30] = compound at 1.0 mg/mL + 1.0 mg/mL dGLA

O=C(OOC(=O)c1ccccc1)c1ccccc1 [Benzoyl Peroxide]
Growth Index Avg [1]: +++
Growth Index Plate 1 [1]: +++
Growth Index Plate 2 [1]: +++
Growth Index Plate 3 [1]: +++
Growth Index Avg [2]: −
Growth Index Plate 1 [2]: −
Growth Index Plate 2 [2]: −
Growth Index Plate 3 [2]: −
Growth Index Avg [3]: +++
Growth Index Plate 1 [3]: +++
Growth Index Plate 2 [3]: +++
Growth Index Plate 3 [3]: +++
Growth Index Avg [4]: −
Growth Index Plate 1 [4]: −
Growth Index Plate 2 [4]: −
Growth Index Plate 3 [4]: −
Growth Index Avg [5]: +++
Growth Index Plate 1 [5]: +++
Growth Index Plate 2 [5]: +++
Growth Index Plate 3 [5]: +++
Growth Index Avg [6]: ++
Growth Index Plate 1 [6]: ++
Growth Index Plate 2 [6]: ++
Growth Index Plate 3 [6]: +
Growth Index Avg [7]: +++
Growth Index Plate 1 [7]: +++
Growth Index Plate 2 [7]: +++
Growth Index Plate 3 [7]: +++
Growth Index Avg [8]: −
Growth Index Plate 1 [8]: −
Growth Index Plate 2 [8]: −
Growth Index Plate 3 [8]: −
Growth Index Avg [9]: ++
Growth Index Plate 1 [9]: ++
Growth Index Plate 2 [9]: ++
Growth Index Plate 3 [9]: ++
Growth Index Avg [10]: −
Growth Index Plate 1 [10]: −
Growth Index Plate 2 [10]: −
Growth Index Plate 3 [10]: −
Growth Index Avg [11]: −
Growth Index Plate 1 [11]: +
Growth Index Plate 2 [11]: −
Growth Index Plate 3 [11]: −
Growth Index Avg [12]: −
Growth Index Plate 1 [12]: −
Growth Index Plate 2 [12]: +
Growth Index Plate 3 [12]: −
Growth Index Avg [13]: ++
Growth Index Plate 1 [13]: ++
Growth Index Plate 2 [13]: ++
Growth Index Plate 3 [13]: ++
Growth Index Avg [14]: −
Growth Index Plate 1 [14]: −
Growth Index Plate 2 [14]: −
Growth Index Plate 3 [14]: −
Growth Index Avg [15]: +
Growth Index Plate 1 [15]: +
Growth Index Plate 2 [15]: +
Growth Index Plate 3 [15]: +
Growth Index Avg [16]: −
Growth Index Plate 1 [16]: −
Growth Index Plate 2 [16]: −
Growth Index Plate 3 [16]: −
Growth Index Avg [17]: −
Growth Index Plate 1 [17]: −
Growth Index Plate 2 [17]: −
Growth Index Plate 3 [17]: −
Growth Index Avg [18]: −
Growth Index Plate 1 [18]: −
Growth Index Plate 2 [18]: −
Growth Index Plate 3 [18]: −
Growth Index Avg [19]: +
Growth Index Plate 1 [19]: +
Growth Index Plate 2 [19]: +
Growth Index Plate 3 [19]: +
Growth Index Avg [20]: −
Growth Index Plate 1 [20]: −
Growth Index Plate 2 [20]: −
Growth Index Plate 3 [20]: −
Growth Index Avg [21]: −
Growth Index Plate 1 [21]: −
Growth Index Plate 2 [21]: −
Growth Index Plate 3 [21]: −
Growth Index Avg [22]: −
Growth Index Plate 1 [22]: −
Growth Index Plate 2 [22]: −
Growth Index Plate 3 [22]: −
Growth Index Avg [23]: −
Growth Index Plate 1 [23]: −
Growth Index Plate 2 [23]: −
Growth Index Plate 3 [23]: −
Growth Index Avg [24]: −
Growth Index Plate 1 [24]: −
Growth Index Plate 2 [24]: −
Growth Index Plate 3 [24]: −
Growth Index Avg [25]: −
Growth Index Plate 1 [25]: −
Growth Index Plate 2 [25]: −
Growth Index Plate 3 [25]: −
Growth Index Avg [26]: −
Growth Index Plate 1 [26]: −
Growth Index Plate 2 [26]: −
Growth Index Plate 3 [26]: −
Growth Index Avg [27]: −
Growth Index Plate 1 [27]: −
Growth Index Plate 2 [27]: −
Growth Index Plate 3 [27]: −
Growth Index Avg [28]: −
Growth Index Plate 1 [28]: −
Growth Index Plate 2 [28]: −
Growth Index Plate 3 [28]: −
Growth Index Avg [29]: −
Growth Index Plate 1 [29]: −
Growth Index Plate 2 [29]: −
Growth Index Plate 3 [29]: −
Growth Index Avg [30]: −
Growth Index Plate 1 [30]: −
Growth Index Plate 2 [30]: −
Growth Index Plate 3 [30]: −
growth of P. Acnes in combination with 15-HETrE, compared with 15-HETrE used alone (in combination with 15-HETrE): did not reduce the growth
